Laboratory results taken from the NIST ThermoML archive (doi:10.1021/acs.jced.8b00028).
Numbers after ± are expanded uncertainties.

Conditions: 101 kPa, Liquid
[1] = 273.15 K, Buoyancy - hydrostatic balance
[2] = 283.15 K, Buoyancy - hydrostatic balance
[3] = 293.15 K, Buoyancy - hydrostatic balance
[4] = 303.15 K, Buoyancy - hydrostatic balance
[5] = 313.15 K, Buoyancy - hydrostatic balance
[6] = 323.15 K, Buoyancy - hydrostatic balance
[7] = 333.15 K, Buoyancy - hydrostatic balance
[8] = 343.15 K, Buoyancy - hydrostatic balance
[9] = 353.15 K, Buoyancy - hydrostatic balance
[10] = 363.15 K, Buoyancy - hydrostatic balance
[11] = 373.15 K, Buoyancy - hydrostatic balance
[12] = 383.15 K, Buoyancy - hydrostatic balance
[13] = 393.15 K, Buoyancy - hydrostatic balance
[14] = 403.15 K, Buoyancy - hydrostatic balance
[15] = 413.15 K, Buoyancy - hydrostatic balance
[16] = 423.15 K, Buoyancy - hydrostatic balance
[17] = 433.15 K, Buoyancy - hydrostatic balance
[18] = 443.15 K, Buoyancy - hydrostatic balance
[19] = 453.15 K, Buoyancy - hydrostatic balance
[20] = 463.15 K, Buoyancy - hydrostatic balance

Compound | mass density [1] [kg/m3] | mass density (273.15 K, Pycnometric method) [kg/m3] | mass density [2] [kg/m3] | mass density (283.15 K, Pycnometric method) [kg/m3] | mass density [3] [kg/m3] | mass density (293.15 K, Pycnometric method) [kg/m3] | mass density [4] [kg/m3] | mass density (303.15 K, Pycnometric method) [kg/m3] | mass density [5] [kg/m3] | mass density (313.15 K, Pycnometric method) [kg/m3] | mass density [6] [kg/m3] | mass density (323.15 K, Pycnometric method) [kg/m3] | mass density [7] [kg/m3] | mass density (333.15 K, Pycnometric method) [kg/m3] | mass density [8] [kg/m3] | mass density (343.15 K, Pycnometric method) [kg/m3] | mass density [9] [kg/m3] | mass density (353.15 K, Pycnometric method) [kg/m3] | mass density [10] [kg/m3] | mass density (363.15 K, Pycnometric method) [kg/m3] | other results
OCCO [1,2-ethanediol] | 1127.2 ± 0.23 | 1127.05 ± 0.38 | 1120.58 ± 0.23 | 1120.5 ± 0.36 | 1113.84 ± 0.22 | 1113.84 ± 0.35 | 1106.98 ± 0.22 | 1107.07 ± 0.36 | 1099.99 ± 0.22 | 1100.19 ± 0.37 | 1092.88 ± 0.22 | 1093.2 ± 0.39 | 1085.65 ± 0.22 | 1086.11 ± 0.4 | 1078.29 ± 0.22 | 1078.91 ± 0.42 | 1070.8 ± 0.22 | 1071.6 ± 0.44 | 1063.2 ± 0.21 | 1064.18 ± 0.45 | mass density [11]: 1055.47 ± 0.21 kg/m3; mass density [12]: 1047.62 ± 0.21 kg/m3; mass density [13]: 1039.64 ± 0.21 kg/m3; mass density [14]: 1031.53 ± 0.21 kg/m3; mass density [15]: 1023.31 ± 0.21 kg/m3; mass density [16]: 1014.96 ± 0.2 kg/m3; mass density [17]: 1006.48 ± 0.2 kg/m3; mass density [18]: 997.88 ± 0.2 kg/m3; mass density [19]: 989.16 ± 0.2 kg/m3; mass density [20]: 980.31 ± 0.2 kg/m3; mass density (473.15 K, Buoyancy - hydrostatic balance): 971.34 ± 0.2 kg/m3
CC(O)CO (configuration not stated) [1,2-propanediol] | 1051.77 ± 0.21 | 1052.17 ± 0.35 | 1044.65 ± 0.21 | 1044.74 ± 0.33 | 1037.13 ± 0.21 | 1037.22 ± 0.31 | 1029.87 ± 0.21 | 1029.64 ± 0.32 | 1022.37 ± 0.21 | 1021.98 ± 0.34 | 1014.64 ± 0.2 | 1014.25 ± 0.35 | 1006.75 ± 0.2 | 1006.45 ± 0.37 | 998.71 ± 0.2 | 998.57 ± 0.38 | 990.77 ± 0.2 | 990.62 ± 0.4 | 982.38 ± 0.2 | 982.6 ± 0.41 | mass density [11]: 973.81 ± 0.2 kg/m3; mass density [12]: 965.04 ± 0.19 kg/m3; mass density [13]: 956.09 ± 0.19 kg/m3; mass density [14]: 946.95 ± 0.19 kg/m3; mass density [15]: 937.62 ± 0.19 kg/m3; mass density [16]: 928.1 ± 0.19 kg/m3; mass density [17]: 918.39 ± 0.18 kg/m3; mass density [18]: 908.5 ± 0.18 kg/m3; mass density [19]: 898.41 ± 0.18 kg/m3; mass density [20]: 888.14 ± 0.18 kg/m3
CCCCCCC [heptane] |  |  |  |  | 683.65 ± 0.14 | 683.67 ± 1 |  |  |  |  |  |  |  |  |  |  |  |  |  |  | mass density (301.62 K, Buoyancy - hydrostatic balance): 675.96 ± 0.14 kg/m3; mass density (301.62 K, Pycnometric method): 675.75 ± 1 kg/m3; mass density (310.71 K, Buoyancy - hydrostatic balance): 668.05 ± 0.13 kg/m3; mass density (310.71 K, Pycnometric method): 667.37 ± 1 kg/m3; mass density (319.85 K, Buoyancy - hydrostatic balance): 660.16 ± 0.13 kg/m3; mass density (319.85 K, Pycnometric method): 659.85 ± 1 kg/m3; mass density (329.04 K, Buoyancy - hydrostatic balance): 652.58 ± 0.13 kg/m3; mass density (329.04 K, Pycnometric method): 651.92 ± 1 kg/m3; mass density (338.26 K, Buoyancy - hydrostatic balance): 644.01 ± 0.13 kg/m3; mass density (338.26 K, Pycnometric method): 644.32 ± 1 kg/m3; mass density (347.53 K, Buoyancy - hydrostatic balance): 635.57 ± 0.13 kg/m3; mass density (347.53 K, Pycnometric method): 635.91 ± 1 kg/m3; mass density (356.84 K, Buoyancy - hydrostatic balance): 627.05 ± 0.13 kg/m3; mass density (356.84 K, Pycnometric method): 627.85 ± 1 kg/m3
